Consider ten compounds from publication PMC3200116 (Journal of medicinal chemistry, 2011).

What is called IC50 is the point on the concentration scale where inhibition reaches its midpoint. Read a low IC50 as inhibition by little substance. For orientation: EC50 means the concentration giving half of the maximal effect.

SMILES strings stand for the structures. Where a name gives a salt, the structure may show the parent alone.

Test [1] concerns the target T1, α4β2 nACh receptors (Homo sapiens, UniProt P17787+P43681). In kind it is cell-based. Particulars: for positive allosteric modulation (potentiation of ACh), in words: highest concentrations evaluated; for potency as positive allosteric modulator relative to 1: compared with 1.
Test [2] has as its target T1, α4β2 nACh receptors. The test is described as follows: Antagonism. The format is cell-based.
For test [3], the target named is T1, α4β2 nACh receptors. The following applies: potentiation of ACh at α4β2, cited from earlier work.
For the next test, the target named is human α7 nACh receptors (Homo sapiens, UniProt P36544). Particulars: at concentrations slightly higher than those potentiating at α4β2; cited from earlier work.
The next test has as its system α3β2 nACh receptors. The following applies: Xenopus oocytes; cited from earlier work.
The next test has as its system α3β4 nACh receptors. Particulars: Xenopus oocytes; cited from earlier work.
For a further test, the system named is α7 nACh receptors. Particulars: cited from earlier work.
A further test concerns α4β4 nACh receptors. The following applies: Xenopus oocytes; cited from earlier work.

T1 sequence (P43681 27-627): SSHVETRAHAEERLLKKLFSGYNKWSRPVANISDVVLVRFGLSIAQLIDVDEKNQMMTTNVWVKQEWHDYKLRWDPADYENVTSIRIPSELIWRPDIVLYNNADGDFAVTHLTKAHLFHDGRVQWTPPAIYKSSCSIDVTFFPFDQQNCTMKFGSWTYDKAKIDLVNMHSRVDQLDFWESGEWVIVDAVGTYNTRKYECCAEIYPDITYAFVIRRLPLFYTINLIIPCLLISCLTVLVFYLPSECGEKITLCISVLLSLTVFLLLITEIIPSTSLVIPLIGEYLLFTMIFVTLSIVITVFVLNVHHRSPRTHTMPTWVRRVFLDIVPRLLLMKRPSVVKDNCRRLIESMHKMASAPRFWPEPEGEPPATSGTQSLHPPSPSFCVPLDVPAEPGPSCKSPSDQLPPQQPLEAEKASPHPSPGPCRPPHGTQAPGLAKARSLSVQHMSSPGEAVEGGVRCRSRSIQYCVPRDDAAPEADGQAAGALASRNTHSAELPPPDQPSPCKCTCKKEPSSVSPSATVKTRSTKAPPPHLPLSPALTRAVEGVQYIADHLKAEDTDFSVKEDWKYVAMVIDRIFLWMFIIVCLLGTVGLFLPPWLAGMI
T1 sequence (P17787 26-502): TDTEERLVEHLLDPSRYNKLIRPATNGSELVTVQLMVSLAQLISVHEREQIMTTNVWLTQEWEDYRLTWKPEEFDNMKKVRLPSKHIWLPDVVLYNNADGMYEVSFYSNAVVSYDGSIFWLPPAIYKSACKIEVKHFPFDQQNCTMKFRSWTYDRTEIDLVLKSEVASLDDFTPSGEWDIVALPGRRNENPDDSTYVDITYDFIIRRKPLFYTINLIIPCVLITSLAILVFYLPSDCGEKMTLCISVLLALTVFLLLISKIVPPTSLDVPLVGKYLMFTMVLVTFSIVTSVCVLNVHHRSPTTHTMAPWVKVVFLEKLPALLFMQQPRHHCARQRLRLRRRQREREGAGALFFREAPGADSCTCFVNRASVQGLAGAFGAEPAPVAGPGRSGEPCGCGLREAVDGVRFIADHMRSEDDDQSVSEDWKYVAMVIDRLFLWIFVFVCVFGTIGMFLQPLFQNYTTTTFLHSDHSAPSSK
Sequence of human α7 nACh receptors (P36544 23-502): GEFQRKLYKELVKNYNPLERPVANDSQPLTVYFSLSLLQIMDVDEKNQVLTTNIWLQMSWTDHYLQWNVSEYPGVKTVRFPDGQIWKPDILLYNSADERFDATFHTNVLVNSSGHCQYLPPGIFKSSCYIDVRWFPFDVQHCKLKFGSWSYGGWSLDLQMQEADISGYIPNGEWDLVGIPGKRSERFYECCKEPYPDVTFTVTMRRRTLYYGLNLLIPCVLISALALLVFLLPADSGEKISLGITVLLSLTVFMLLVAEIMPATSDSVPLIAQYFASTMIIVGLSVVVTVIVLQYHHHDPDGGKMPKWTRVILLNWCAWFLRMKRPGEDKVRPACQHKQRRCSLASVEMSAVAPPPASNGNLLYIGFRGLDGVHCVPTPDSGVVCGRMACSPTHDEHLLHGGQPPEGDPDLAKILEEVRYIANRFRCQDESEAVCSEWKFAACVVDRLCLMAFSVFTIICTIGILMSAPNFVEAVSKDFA

`CNCCc1c(C(C)(C)C)[nH]c2ccccc12` [Compound 11, N-Methyl-2-(tert-butyl)tryptamine Hydrogen Oxalate]: on α4β2 nACh receptors [1], the “positive allosteric modulation (potentiation of ACh), in words” value (from here on “positive allosteric modulation”) is listed as “active”.

Consider `CNCCc1c[nH]c2cc(Br)ccc12` [Compound 3, N-Methyl-6-bromotryptamine], for which half-maximal inhibition against α4β2 nACh receptors [2] (IC50) required 39.8 µM. The “positive allosteric modulation” value on α4β2 nACh receptors [1] is recorded as “failed to enhance the action of ACh”.

Turning to `C=CC(C)(C)c1[nH]c2cc(Br)ccc2c1CCN` [Compound 2, 6-Bromo-2-(1,1-dimethylallyl)tryptamine Hydrochloride], the “potency as positive allosteric modulator relative to 1” value at α4β2 nACh receptors [1] is given as “about half as potent as 1”.

On to `CCC(C)(C)c1[nH]c2cc(Br)ccc2c1CCNC` [Compound 6, N-Methyl-6-bromo-2-(1,1-dimethylpropyl)tryptamine Oxalate], for which, at α4β2 nACh receptors [1], the “potency as positive allosteric modulator relative to 1” value is listed as “at least as potent, if not twice as potent, as 1”.

`CCC(C)c1[nH]c2ccccc2c1CCNC` (stereo not drawn) [Compound 9, N-Methyl-2-sec-butyltryptamine Oxalate] had an IC50 against α4β2 nACh receptors [2] of 16.6 µM. The “positive allosteric modulation” value on α4β2 nACh receptors [1] was “inactive”.

As to `C=CC(C)(C)c1[nH]c2cc(Br)ccc2c1CCNC.Cl` [Compound 1, des-formylflustrabromine], at α4β2 nACh receptors [3], the pEC50 originally reported result is reported as “ca. 6.8”. Moreover, at α4β2 nACh receptors [3] (read-out: EC50 originally reported), the EC50 is 0.12 µM. Besides, the “inhibition of the action of ACh in an α7 preparation” value at human α7 nACh receptors is “inhibited”. Also, in the test with α3β2 nACh receptors, the “potentiation of the actions of ACh at α3β2” value is reported as “failed to potentiate”. The “potentiation of the actions of ACh at α3β4” value in the test with α3β4 nACh receptors is listed as “failed to potentiate”. Also, the “potentiation of the actions of ACh at α7” value in the test on α7 nACh receptors (Xenopus oocytes) is “failed to potentiate”. The “potentiation of the action of ACh in an α7 preparation” value in the test on α7 nACh receptors is “failed to potentiate”. Also, the “potentiation of the actions of ACh at α4β4” value with α4β4 nACh receptors is on record as “failed to potentiate”.

Turning to `CNCCc1c(C(C)C)[nH]c2ccccc12` [Compound 12, N-Methyl-2-isopropyltryptamine Hydrochloride], at α4β2 nACh receptors [1], the “positive allosteric modulation” value was “inactive”.

The compound `CCCc1[nH]c2cc(Br)ccc2c1CCNC` [Compound 4, N-Methyl-6-bromo-2-n-propyltryptamine Oxalate] gave an IC50 against α4β2 nACh receptors [2] of 72.4 µM.

In the case of `CCCc1[nH]c2ccccc2c1CCNC` [Compound 10, N-Methyl-2-(n-propyl)tryptamine Oxalate], the IC50 at α4β2 nACh receptors [2] was 18.6 µM. The “positive allosteric modulation” value at α4β2 nACh receptors [1] was “inactivity”.

Turning to `C=CCc1[nH]c2cc(Br)ccc2c1CCNC` [Compound 5, N-Methyl-2-allyl-6-bromotryptamine Oxalate], the IC50 at α4β2 nACh receptors [2] was 3.55 µM. For the same compound, the “positive allosteric modulation” value at α4β2 nACh receptors [1] is “lacked potentiating activity”.
